According to US20220202624A1, “SELF-ADHESIVE SILICONE GEL LOADED WITH MICROPARTICLES, PARTICLES WITH IMPROVED ADHESION” (priority 2019, published 2022):

Columns and labels:
[1] = Gel consistency: elastic shear modulus G′ by rheometer; format: physicochemical; details: 4.8% Isopropyl Myristate in gel, vs pure gel (Table 7)
From the text: 1. Preparation of Materials for Performance Characterization. • Characterization of rheological properties: for these characterizations, a ˜0.6 g sample of non-crosslinked SACSG should be placed in the measuring cell. In the case of mixtures obtained by the direct mode, a sample of the degassed mixture whose preparation has just been described is used. If Parts A′ and B′ which have been obtained by the indirect method are available, both Parts A′ and B′ are rehomogenised if necessary, equivalent masses of A′ and B′ are weighed and mixed with a spatula; after degassing at 20-50 mbar at room temperature until the bubbles are eliminated (about 10 minutes), a sample of the mixture may be taken and placed in the measuring cell. […]
The consistency of the gels is characterized by their elastic shear modulus, which is measured as follows: • rheometer: Thermofisher RS 6000. • Plan-Plan cell: rotor with 20 mm radius, rotor/stator gap=0.5 mm. • mode: imposed stress=10 Pa. • oscillation frequency: 1 Hz. • temperature: sample installation at 30°. • closing of the cell in two steps: 3 mm/mn until D=1.5 mm, then 0.15 mm/mn until D=0.5 mm. • temperature rise to 70° in 60 s. • measurement G′-G″ at 70° for 4000 s, return to 30°. […]

[2] = Miscibility / solubility of added substances in self-adhesive silicone gel (SASG); details: liquid in SASG

Row | SMILES | drop of G′ value [1] [%] | miscibility with SASG [2]
1 | CCCCCCCCCCCCCC(=O)OC(C)C [Isopropyl Myristate] | 20 | 
2 | COC(=O)c1ccccc1O [Methyl Salicylate] |  | 12-15%
